± gives the expanded uncertainty stated by the source.
Assays:
[1] = mn = molality of the nth substance listed, in mol/kg; conditions: 101.3 kPa, Liquid; for speed of sound: Single path-length method; for mass density: Vibrating tube method
[2] = 318.15 K; 101.3 kPa; Liquid; Single path-length method

| SMILES | speed of sound ([1]; 318.15 K, m2 = 0) [m/s] | speed of sound [2] [m/s] | speed of sound ([1]; 298.15 K, m1 = 0.025) [m/s] | speed of sound ([1]; 298.15 K, m1 = 0.05) [m/s] | mass density ([1]; 298.15 K, m1 = 0.025) [kg/m3] | mass density ([1]; 298.15 K, m1 = 0.05) [kg/m3] | speed of sound ([1]; 308.15 K, m1 = 0.025) [m/s] | speed of sound ([1]; 308.15 K, m1 = 0.05) [m/s] | mass density ([1]; 308.15 K, m1 = 0.025) [kg/m3] | mass density ([1]; 308.15 K, m1 = 0.05) [kg/m3] | speed of sound ([1]; 318.15 K, m1 = 0.025) [m/s] | speed of sound ([1]; 318.15 K, m1 = 0.05) [m/s] | mass density ([1]; 318.15 K, m1 = 0.025) [kg/m3] | mass density ([1]; 318.15 K, m1 = 0.05) [kg/m3] |
| --- | --- | --- | --- | --- | --- | --- | --- | --- | --- | --- | --- | --- | --- | --- |
| O [water] + CCN(CC)CCNC(=O)c1ccc(N)cc1.Cl | 1536.7 ± 1 |  |  |  |  |  |  |  |  |  |  |  |  |  |
| O [water] |  | 1536.7 ± 1 |  |  |  |  |  |  |  |  |  |  |  |  |
| CC(C)[C@H](N)C(=O)O [L-valine] + O |  |  | 1498.9 ± 1 | 1501.7 ± 1 | 997.706 ± 0.1 | 998.248 ± 0.1 | 1521.7 ± 1 | 1524.2 ± 1 | 994.661 ± 0.1 | 995 ± 0.1 | 1537.7 ± 1 | 1540.2 ± 1 | 990.798 ± 0.1 | 991.103 ± 0.1 |
| C[C@H](N)C(=O)O [(S)-2-aminopropanoic acid] + O |  |  | 1498.8 ± 1 | 1500 ± 1 | 997.765 ± 0.1 | 998.484 ± 0.1 | 1521.6 ± 1 | 1522.7 ± 1 | 994.741 ± 0.1 | 995.466 ± 0.1 | 1538 ± 1 | 1539.2 ± 1 | 990.91 ± 0.11 | 991.637 ± 0.11 |
